Format in all cases: cell-based, human
Assay [1] deals with histone-mediated RBC aggregation. Put plainly: Histone-mediated erythrocyte aggregation (flow cytometry, scanning EM). On the procedure:
(§1) Human erythrocytes (RBC) were incubated for 1 h at 37° C. alone (‘Saline’ control) or in the presence of histones (400 μg ml^−1) with or without mCBS (200 μg ml^−1). a, Percentage of RBC aggregation measured by flow cytometry based on forward (FSC) and side (SSC) scatter parameters and an appropriate gating strategy to discriminate aggregated from normal (non-aggregated) RBC. b, Scanning electron micrographs depicting level of RBC aggregation at low and high magnification following the three treatments depicted in (a). c, Concentration dependent inhibition of histone-mediated RBC aggregation by mCBS and MTS, in this case RBC aggregation being calculated by flow cytometry as fold increase in RBC auto-fluorescence relative to RBC in the absence of histones. The fold increase values also provide an estimate of the number of RBC in each aggregate. d, Retention of RBC in an artificial spleen that measures RBC deformability. RBC were incubated with increasing concentrations of histones for 1 h and, at the highest concentration used (400 μg ml^−1), also incubated with either mCBS or MTS (100 and 200 μg ml^−1), prior to passage through the artificial spleen. Data are mean±s.e.m. (n=3 biological replicates). ***P<0.001, ****P<0.0001 (one way ANOVA with Dunnett's multiple comparisons test).
In vitro erythrocyte microscopy, aggregation, fragility and deformability assays. […] J Biol Chem 289, 19531-19537 (2014)). Similarly, erythrocyte fragility induced by histones, in the presence or absence of inhibitors, was quantified using a sheer stress assay that we developed recently (Kordbacheh, F., O'Meara, C. H., Coupland, L. A., Lelliott, P. M. & Parish, C. R. Extracellular histones induce erythrocyte fragility and anemia. Blood 130, 2884-2888 (2017)). Finally, the reduced deformability of erythrocytes in the presence of histones and the effect of inhibitors on this process was assessed by measuring the passage of erythrocytes through an artificial human spleen (Kordbacheh, F., O'Meara, C. H., Coupland, L. A., Lelliott, P. M. & Parish, C. R. Extracellular histones induce erythrocyte fragility and anemia. Blood 130, 2884-2888 (2017); and Deplaine, G. et al. The sensing of poorly deformable red blood cells by the human spleen can be mimicked in vitro. Blood 117, e88-95 (2011)).

The test system of assay [2] is histone-induced erythrocyte rigidity. Put plainly: Erythrocyte deformability, passage through artificial spleen. The conditions noted are these: histones 400 μg ml^−1, compounds 100 and 200 μg ml^−1, FIG. 3d. On the procedure:
as §1, with “RBC were incubated with increasing concentrations of histones for 1 h and, at the highest concentration used (400 μg ml^−1), also incubated with either mCBS or MTS (100 and 200 μg ml^−1), prior to passage through the artificial spleen. Data are mean±s.e.m. (n=3 biological replicates). ***P<0.001, ****P<0.0001 (one way ANOVA with Dunnett's multiple comparisons test).” left out
In vitro erythrocyte microscopy, aggregation, fragility and deformability assays. […] Similarly, erythrocyte fragility induced by histones, in the presence or absence of inhibitors, was quantified using a sheer stress assay that we developed recently (Kordbacheh, F., O'Meara, C. H., Coupland, L. A., Lelliott, P. M. & Parish, C. R. Extracellular histones induce erythrocyte fragility and anemia. Blood 130, 2884-2888 (2017)). […]

In assay [3] the test system is anti-proliferative effect of histones on HMEC-1. In words: HMEC-1 proliferation (3H-thymidine) after histone exposure. The following applies: compounds 100 μg ml^−1, histones 400 μg ml^−1, FIG. 8b.

Take `O=S(=O)(O)OC[C@H]1O[C@H](O[C@H]2[C@H](OS(=O)(=O)O)[C@@H](OS(=O)(=O)O)C(OS(=O)(=O)O)O[C@@H]2COS(=O)(=O)O)[C@H](OS(=O)(=O)O)[C@@H](OS(=O)(=O)O)[C@@H]1O[C@H]1O[C@H](COS(=O)(=O)O)[C@@H](OS(=O)(=O)O)[C@H](OS(=O)(=O)O)[C@H]1OS(=O)(=O)O` (stereo partly shown) [MTS, maltotriose per-O-sulfate]: the “Effectiveness of MTS relative to mCBS in preventing RBC aggregation” value in assay [1] (FIG. 3c) was approximately 2 fold. Besides, the “Prevention of histone-mediated RBC aggregation (auto-fluorescence)” value in assay [1] (histones 400 μg ml^−1, FIG. 3c) is given as “prevented aggregation in a concentration dependent manner”. The “Ability of erythrocytes to passage through an artificial spleen” value in assay [2] is on record as “totally restored”. Moreover, the “Neutralization of anti-proliferative effect of histones on HMEC-1 monolayers” value in assay [3] is “completely neutralized”.

(Values after patent US12239650B2, “Compounds for treating and preventing net associated complications” (The Australian National University, priority 2019, dated 2025).)
